Experiments:
COL2A1 promoter = COL2A1 promoter luciferase cotransfection in T/C-28a2 cells; format: cell-based, human; settings: for inhibition of COL2A1/4.0 activity: T/C-28a2, pGL3 construct, highest concentrations tested
Method: The COL2A1 sequence spanning −577 to +3428 bp (Goldring M B, et al, J Cell Biochem 1994;54:85-99, 39) was cloned into the pGL2-basic (pGL2B) luciferase reporter gene vector (Promega,) and named pGL2-COL2/4.0. Deletion constructs containing −577/+125 bp, −131/+125 bp, −87/+125 bp were prepared by enzyme digestion of pGL2-COL2/4.0 using PstI, ApaI, and PuuII, followed by ligation. For the deletion constructs −45/+125 bp, −83/+7 bp, and −45/+7 bp, PCR products were generated as described (Osaki et al.) and cloned into the pGL2-Basic luciferase vector. These reporter constructs were used as templates to generate point mutations or internal deletions by PCR mutagenesis employing the oligonucleotides listed in FIG. 16 and the QuikChange™ Site-Directed Mutagenesis Kit (Stratagene, La Jolla, Calif.). DNA fragments containing point mutations were then cloned into the pGL2B vector and confirmed by DNA sequencing using a G2 primer on pGL2 DNA. Deletions were also made in the −577/+127 bp COL2A1 promoter construct using the ExSite™ PCR-Based Site-Directed Mutagenesis Kit (Stratagene).
Transient transfection experiments were carried out in C-28/I2 cells using LipofectAMINE PLUS™ Reagent (Life Technologies). Cells were seeded in 6-well tissue culture plates at 3.5×10^5 cells/well in DMEM/F12 containing 10% FCS 24 h prior to transfection. For each well, 1 μg of COL2A1-luciferase construct, 6 μl of PLUS reagent and 92 μl of serum-free DMEM/F12 were mixed and incubated for 15 min at room temperature. LipofectAMINE+ reagent (4 μl) in 100 μl of serum-free medium was then added to each reaction mixture and incubation was continued for an additional 30 min at room temperature. Finally, the transfection mixture was combined with 800 μl of serum-free medium and the lipid-nucleic acid complex was transferred to the washed cell monolayer in each well. After incubation for 4 h at 37° C., the transfection mix was diluted with an equal volume of DMEM/F12 containing 2% Nutridoma-SP, and incubation continued for 18 h in the absence or presence of IL-1β. For cotransfections, the cells were incubated for 24 h to permit expression of recombinant proteins prior to treatment with IL-1β for a further 18 h. Cell lysates were prepared by extraction with 200 μl of Reporter Lysis Buffer (Promega) and the protein content was determined using the Coomassie Plus Protein Assay Reagent (PIERCE). Luciferase activities were determined by chemiluminescence assay using the Autolumat LB953 luminometer (EG&G Berthold, Oak Ridge, Tenn.), normalized to the amount of protein. Each data point was calculated as the mean±standard deviation for three independently transfected cultures from one representative of at least three experiments. […]

ESE-1 [1] = assay: ESE-1 mRNA Northern blot in LB-12 osteoblasts; format: cell-based, human; settings: LB-12 cells
Method: (§1) U-87 Mg and U-138 Mg (human glioma), THP-1 (human monocytic), RAW 264.7 (murine monocytic), LB-12 (human osteoblast-like large T antigen transformed bone marrow stromal cells), and human chondrocytes were grown and treated with cytokines as described (Apperley, J., et al. 1990. J Bone Mineral Res. 5:S93; Goldring, M. B., et al. 1994. J Clin Invest 94:2307-16; Goldring, S. R., et al. 1983. J Bone Joint Surg 65:575-84; Libermann, T. A., et al. 1987. Embo J. 6:1627-1632).
Total RNA was harvested using QIAshreder (Qiagen) and RNeasy® Mini Kit (Quiagen) or Trizol (Gibco BRL). Poly A^+ RNA was prepared with MicroPoly(A) Pure (Ambion). Northern blots (5 μg total RNA) were hybridized using a full length ESE-1 cDNA probe as described (Oettgen, P., et al. et al. 1997, Mol Cell Biol 17:4419-33.).
Osteoblasts, the bone cells responsible for bone formation, represent another connective tissue cell target of inflammatory cytokines in joint disorders (Bogoch, E. R., and E. Moran. 1998, Can J Surg 41:264-71). […] LB-12 cells were incubated for different times in the absence or presence of IL-1β. […] Since the rapid, but transient induction of ESE-1 resembles that of immediate early genes, we tested the effect of the protein synthesis inhibitor cycloheximide which superinduces expression of certain genes due to mRNA stabilization. Cycloheximide alone had no effect, but superinduced IL-1β-mediated ESE-1 mRNA expression (FIG. 11d).

ESE-1 [2] = assay: ESE-1 mRNA RT-PCR in immortalized chondrocytes T/C28a2, C28/I2, C20/A4; format: cell-based, human; settings: T/C28a2, C28/I2 and C20/A4 chondrocytes; 24 hours
Method: as §1
(§2) cDNAs were generated from 1 μg of total RNA using Ready-To-Go™ You-prime First-Strand Beads (Amersham Pharmacia Biotech Inc). RT-PCR amplifications of 0.1 μg cDNA were carried out using a MJResearch thermal cycler PTC-100 as follows: 5 min at 94° C., 20-37 cycles of 30 sec at 94° C., 30 sec at 56° C., and 30 sec at 72° C., followed by 5 min at 72° C. (Oettgen, P., et al. 2000, J Biol Chem 275:1216-25). The sequences of the human ESE-1 primers and the primers for human GAPDH were as described (Oettgen, P., et al. 1999, J Biol Chem 274:29439-52).
To test the hypothesis that ESE-1 is a mediator of cytokine responses in non-epithelial cell types, we analyzed ESE-1 expression in response to a variety of cytokines in several connective tissue cell types. Immortalized human chondrocytes, T/C28a2, C28/I2, and C20/A4 (Goldring, M. B., et al. 1994, J Clin Invest 94:2307-16), were stimulated with IL-1β, TNF-α and IFN-γ for 24 hours. […] The kinetics of ESE-1 induction was explored in a time course experiment with T/ C28a2 chondrocytes.

ESE-1 [3] = assay: ESE-1 mRNA RT-PCR in RA synovial fibroblasts; format: cell-based, human; settings: for ESE-1 mRNA expression, agent alone: 4th passage RA synovial fibroblasts
Method: Tissues from patients with rheumatoid arthritis (RA) were obtained as discarded materials from total joint replacement surgery or synovectomy. RA synovial tissue samples were cultured for the generation of adherent synovial fibroblasts. Dispersed synovial tissues were prepared by a previously published method (Goldring, S. R., et al. 1983. The synovial-like membrane at the bone-cement interface in loose total hip replacements and its proposed role in bone lysis. J Bone Joint Surg 65:575-84). Cells were subjected to 2-4 passages and stimulated with IL-1β (R&D Systems) at 100 pg/ml or with TNF-α (R&D Systems) at 5 ng/ml.
as §2
The synovium in RA is comprised of heterogeneous cell populations including monocyte/macrophages, lymphocytes and synovial fibroblasts. To evaluate whether ESE-1 expression in synovial fibroblasts is regulated by proinflammatory cytokines, 4th passage synovial fibroblasts isolated from RA synovium were stimulated for different times with IL-1β in the absence or presence of indomethacin. […] They also indicate that cytokine-induced prostaglandins may modulate steady state ESE-1 mRNA levels. […] We, therefore, focused our attention in further studies on IL-1β.

NOS2 promoter [4] = assay: LPS (endotoxin) induction of NOS2 promoter luciferase reporter in RAW cells; format: cell-based, murine
Method: (§3) A 1516 and 265 bp fragment corresponding to nucleotides (−1485 to +31) and (−234 to +31) of the murine NOS2 gene promoter were subcloned into the PGL2 luciferase reporter(Promega).
(§4) Co-transfections of 2×10^5 RAW cells or RASMCs were carried out with 0.6 μg reporter gene construct DNA and 0.6 μg expression vector DNA using 6 μl lipofectamine (Gibco-BRL) as described (Oettgen, P., et al. 1996. Characterization of NERF, a novel transcription factor related to the Ets factor ELF-1. Mol Cell Biol 16:5091-106). The cells were harvested 16 hours after transfection and assayed for luciferase activity. Transfections for every construct were performed independently in duplicates and repeated 3 times with two different plasmid preparations with similar results. Cotransfection of a second plasmid for determination of transfection efficiency was omitted because potential artifacts with this technique have been reported and because many commonly used viral promoters contain potential binding sites for ets factors (Farr, A., and A. Roman. 1992. A pitfall of using a second plasmid to determine transfection efficiency. Nucleic Acids Res 20:920).
In the presence of LPS, the ESE-1 DN1 protein blocked induction of the NOS2 promoter by LPS by approximately 70-75%. (See FIG. 21C).

NOS2 promoter [5] = assay: ESE-1 transactivation of NOS2 promoter luciferase reporter, cotransfection in RAW cells; format: cell-based, murine; settings: cotransfected with ESE-1
Method: as §3, §4
The ability of ESE-1 DN 1 to block transactivation of the NOS2 promoter was tested in RAW cells. Cotransfection of ESE-1 with the NOS2 promoter led to an approximate 12-fold increase in transactivation. […]

pCI-NERF2: expression vector for the ETS factor NERF-2
inhibition of COL2A1/4.0 activity (COL2A1 promoter): 40%

C[C@]12CCC(=O)C=C1CC[C@@H]1[C@@H]2[C@@H](O)C[C@@]2(C)[C@H]1CC[C@]2(O)C(=O)CO [Hydrocortisone]
IL-1β-mediated ESE-1 mRNA expression in presence of agent (ESE-1 [1]): strongly enhanced | ESE-1 mRNA expression, agent alone (ESE-1 [1]; 1, 2, 6, 24 hours): did not induce

TNF-α
ESE-1 expression (ESE-1 [2]): stimulated ESE-1 expression in T/ C28a2 cells to similar levels as IL-1β, but only weakly in C28/I2 and C20/A4 cells | ESE-1 mRNA expression, agent alone (ESE-1 [3]): minimal ESE-1 induction

pCI-ELF1: expression vector for the ETS factor ELF-1
inhibition of COL2A1/4.0 activity (COL2A1 promoter): 65%

COc1ccc2c(c1)c(CC(=O)O)c(C)n2C(=O)c1ccc(Cl)cc1 [indomethacin]
ESE-1 mRNA expression, agent alone (ESE-1 [3]): did not express detectable ESE-1 mRNA | IL-1β-induced ESE-1 mRNA levels in presence of agent (ESE-1 [3]; RA synovial fibroblasts, 6 hours, 24 hours, 5 days): stabilized and did not decline even after 5 days

IFN-γ: cytokine tested on chondrocytes
ESE-1 expression (ESE-1 [2]): failed to induce ESE-1 expression

ESE-3: ESE family Ets factor overexpressed by cotransfection
inhibition of pGL2-COL2/4.0 (COL2A1 promoter; highest concentration tested): ~60%

B1: ESE-1 DN1: dominant negative ESE-1 protein lacking amino acids 26 through 192, expressed from pCI plasmid (SEQ ID NO: 39) (protein, listed as Homo sapiens)
chain: MAATCEISNIFSNYFSAMYSSEDSTAGTGASRSSHSSDSGGSDVDLDPTDGKLFPSDGFRDCKKGDPKHGKRKRGRPRKLSKEYWDCLEGKKSKHAPRGTHLWEFIRDILIHPELNEGLMKWENRHEGVFKFLRSEAVAQLWGQKKKNSNMTYEKLSRAMRYYYKREILERVDGRRLVYKFGKNSSGWKEEEVLQSRN
induction of the NOS2 promoter by LPS blocked by (NOS2 promoter [4]; in the presence of LPS): 70-75% | basal NOS2 promoter activity (NOS2 promoter [4]; prior to LPS induction): slight reduction | ESE-1 transactivation of the NOS2 promoter blocked by (NOS2 promoter [5]): 60-70%
